Reference: US20210255193A1, “LYSINE REACTIVE PROBES AND USES THEREOF” (The Scripps Research Institute, priority 2017, published 2021)

What was measured:
Assay in all cases: competitive isoTOP-ABPP
Format in all cases: binding
[1] = target: T1, NPEPPS Puromycin-sensitive aminopeptidase (Homo sapiens, UniProt P55786); settings: for isoTOP-ABPP ratio (R) at liganded lysine P55786_K712: sol, 231
T1 construct: isoTOP-ABPP experiments performed in cell lysates (in vitro); endogenous in cells; host or cells: soluble proteome of human cancer cell lines (MDA-MB-231, Ramos, Jurkat)
T1 sequence (P55786 whole entry): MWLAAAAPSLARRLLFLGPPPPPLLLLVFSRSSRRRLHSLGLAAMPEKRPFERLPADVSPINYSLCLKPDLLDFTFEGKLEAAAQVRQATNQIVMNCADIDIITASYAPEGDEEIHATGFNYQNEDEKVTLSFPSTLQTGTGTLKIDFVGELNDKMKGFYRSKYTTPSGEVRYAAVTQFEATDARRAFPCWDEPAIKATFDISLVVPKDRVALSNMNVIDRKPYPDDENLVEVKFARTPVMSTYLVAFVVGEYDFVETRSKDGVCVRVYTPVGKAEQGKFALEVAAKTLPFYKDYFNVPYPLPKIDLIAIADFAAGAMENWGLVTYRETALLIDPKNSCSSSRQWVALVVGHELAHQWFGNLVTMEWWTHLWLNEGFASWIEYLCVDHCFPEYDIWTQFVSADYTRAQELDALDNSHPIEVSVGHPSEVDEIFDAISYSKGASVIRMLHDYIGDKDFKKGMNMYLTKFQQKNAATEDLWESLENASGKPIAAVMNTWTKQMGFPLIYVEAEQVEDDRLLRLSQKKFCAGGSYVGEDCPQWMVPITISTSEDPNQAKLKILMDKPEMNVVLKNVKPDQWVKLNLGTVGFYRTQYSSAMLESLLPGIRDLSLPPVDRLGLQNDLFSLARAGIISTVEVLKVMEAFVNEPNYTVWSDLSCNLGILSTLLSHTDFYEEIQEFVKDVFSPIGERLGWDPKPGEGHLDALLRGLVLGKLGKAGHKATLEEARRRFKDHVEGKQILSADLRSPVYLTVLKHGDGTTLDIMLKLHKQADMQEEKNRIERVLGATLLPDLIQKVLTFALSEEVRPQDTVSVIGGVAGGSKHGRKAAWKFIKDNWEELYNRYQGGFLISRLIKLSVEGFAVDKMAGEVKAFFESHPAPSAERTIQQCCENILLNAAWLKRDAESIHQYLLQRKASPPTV
Method in brief: (§1)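 Here, isoTOP-ABPP measures loss of STP-alkyne labeling at individual lysines after fragment exposure in lysate. Activated esters are dosed at 50 μM, guanidinylating agents at 100 μM; the probe follows at 0.1 mM for 1 h. R ≥4 marks a liganded lysine.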

[2] = target: T2, SIN3A Paired amphipathic helix protein Sin3a (Homo sapiens, UniProt Q96ST3); settings: for isoTOP-ABPP ratio, lysine Q96ST3_K155: possible other lysine Q96ST3_K152; for isoTOP-ABPP ratio (R) at liganded lysine Q96ST3_K155: sol, 231
T2 construct: isoTOP-ABPP experiments performed in cell lysates (in vitro); endogenous in cells; host or cells: soluble proteome of human cancer cell lines (MDA-MB-231; Ramos and Jurkat also prepared)
T2 sequence (Q96ST3 1-1273): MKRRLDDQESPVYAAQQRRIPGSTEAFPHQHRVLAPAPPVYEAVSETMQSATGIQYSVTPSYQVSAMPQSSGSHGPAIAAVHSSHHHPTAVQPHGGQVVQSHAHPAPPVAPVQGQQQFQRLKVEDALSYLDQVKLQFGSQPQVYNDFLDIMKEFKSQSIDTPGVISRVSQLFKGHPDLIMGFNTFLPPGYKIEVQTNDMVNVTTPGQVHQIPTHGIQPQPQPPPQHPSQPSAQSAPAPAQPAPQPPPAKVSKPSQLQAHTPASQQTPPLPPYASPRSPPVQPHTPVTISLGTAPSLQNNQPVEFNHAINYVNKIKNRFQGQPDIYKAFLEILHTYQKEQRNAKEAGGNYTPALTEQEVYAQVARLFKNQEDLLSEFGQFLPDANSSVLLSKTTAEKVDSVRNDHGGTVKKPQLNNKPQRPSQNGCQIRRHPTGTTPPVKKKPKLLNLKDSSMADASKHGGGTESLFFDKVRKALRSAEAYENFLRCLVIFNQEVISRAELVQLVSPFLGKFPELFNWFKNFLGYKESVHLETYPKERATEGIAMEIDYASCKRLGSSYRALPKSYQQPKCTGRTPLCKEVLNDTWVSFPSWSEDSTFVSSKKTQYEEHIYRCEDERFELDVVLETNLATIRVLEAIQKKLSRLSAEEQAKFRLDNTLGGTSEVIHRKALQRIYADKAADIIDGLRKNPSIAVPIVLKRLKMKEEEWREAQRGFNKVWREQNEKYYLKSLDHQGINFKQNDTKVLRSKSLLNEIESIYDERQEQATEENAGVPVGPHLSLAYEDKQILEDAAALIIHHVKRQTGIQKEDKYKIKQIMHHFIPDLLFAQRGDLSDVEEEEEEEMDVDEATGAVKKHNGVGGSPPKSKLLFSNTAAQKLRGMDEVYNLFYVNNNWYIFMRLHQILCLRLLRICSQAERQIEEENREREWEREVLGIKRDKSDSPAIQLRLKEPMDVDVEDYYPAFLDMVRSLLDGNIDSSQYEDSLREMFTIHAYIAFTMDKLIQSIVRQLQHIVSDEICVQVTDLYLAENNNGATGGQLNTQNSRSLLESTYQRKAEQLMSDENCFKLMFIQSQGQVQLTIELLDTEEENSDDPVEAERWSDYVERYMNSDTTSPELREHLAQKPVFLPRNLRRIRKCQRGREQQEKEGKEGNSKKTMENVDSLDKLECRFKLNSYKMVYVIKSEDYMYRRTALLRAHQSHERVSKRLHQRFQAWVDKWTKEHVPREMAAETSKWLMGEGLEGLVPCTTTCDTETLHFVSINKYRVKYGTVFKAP
Method in brief: as §1

[3] = target: T3, XRCC6 X-ray repair cross-complementing protein 6 (Homo sapiens, UniProt P12956); settings: for isoTOP-ABPP ratio (R) at liganded lysine P12956_K351: sol, 231
T3 construct: isoTOP-ABPP experiments performed in cell lysates (in vitro); endogenous in cells; host or cells: soluble proteome of human cancer cell lines (MDA-MB-231; Ramos and Jurkat also prepared)
T3 sequence (P12956 2-609 limits assumed): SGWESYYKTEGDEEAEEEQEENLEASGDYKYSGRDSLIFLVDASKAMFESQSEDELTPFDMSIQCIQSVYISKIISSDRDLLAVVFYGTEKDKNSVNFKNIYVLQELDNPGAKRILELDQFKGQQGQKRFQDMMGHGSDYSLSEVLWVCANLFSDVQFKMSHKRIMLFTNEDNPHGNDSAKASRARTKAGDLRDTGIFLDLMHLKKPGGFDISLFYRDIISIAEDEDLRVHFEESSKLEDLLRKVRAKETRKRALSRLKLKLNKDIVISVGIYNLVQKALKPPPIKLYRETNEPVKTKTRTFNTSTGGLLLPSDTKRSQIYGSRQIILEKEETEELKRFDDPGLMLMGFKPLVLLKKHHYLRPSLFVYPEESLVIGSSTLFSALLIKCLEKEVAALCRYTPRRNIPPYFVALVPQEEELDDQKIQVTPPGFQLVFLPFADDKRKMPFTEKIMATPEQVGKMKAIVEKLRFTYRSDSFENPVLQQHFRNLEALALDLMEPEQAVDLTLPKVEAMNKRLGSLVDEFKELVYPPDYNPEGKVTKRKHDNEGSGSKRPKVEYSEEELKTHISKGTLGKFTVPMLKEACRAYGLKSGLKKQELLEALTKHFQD
T3 sequence (P13010 2-732 partner limits assumed): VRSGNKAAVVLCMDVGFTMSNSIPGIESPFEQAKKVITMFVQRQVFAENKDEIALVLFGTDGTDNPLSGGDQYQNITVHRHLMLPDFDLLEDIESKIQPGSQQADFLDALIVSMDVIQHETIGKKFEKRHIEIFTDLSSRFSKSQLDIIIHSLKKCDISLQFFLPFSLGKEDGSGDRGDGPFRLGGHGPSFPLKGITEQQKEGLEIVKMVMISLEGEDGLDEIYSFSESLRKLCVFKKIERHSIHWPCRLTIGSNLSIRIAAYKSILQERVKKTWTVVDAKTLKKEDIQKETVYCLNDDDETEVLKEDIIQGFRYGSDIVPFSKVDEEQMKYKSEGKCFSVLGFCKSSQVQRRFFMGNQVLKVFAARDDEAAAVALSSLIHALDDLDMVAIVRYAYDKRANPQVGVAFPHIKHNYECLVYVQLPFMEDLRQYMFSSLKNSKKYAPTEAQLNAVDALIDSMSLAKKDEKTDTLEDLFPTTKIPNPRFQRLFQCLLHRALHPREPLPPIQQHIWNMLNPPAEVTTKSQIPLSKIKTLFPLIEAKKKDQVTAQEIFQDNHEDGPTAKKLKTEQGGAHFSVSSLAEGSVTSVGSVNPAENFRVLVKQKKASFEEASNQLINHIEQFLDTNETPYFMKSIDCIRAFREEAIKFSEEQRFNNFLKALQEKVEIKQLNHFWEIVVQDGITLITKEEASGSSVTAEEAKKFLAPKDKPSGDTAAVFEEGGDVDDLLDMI
Method in brief: as §1

Row | Structure (SMILES) | isoTOP-ABPP ratio, lysine P55786_K712 ([1]; 50 uM_231_sol_in vitro) | isoTOP-ABPP ratio, lysine Q96ST3_K155 ([2]; 50 uM_231_sol_in vitro) | isoTOP-ABPP ratio, lysine P12956_K351 ([3]; 50 uM_231_sol_in vitro) | isoTOP-ABPP ratio (R) at liganded lysine P55786_K712 ([1]; 50 uM, in vitro) | isoTOP-ABPP ratio (R) at liganded lysine Q96ST3_K155 ([2]; 50 uM, in vitro) | isoTOP-ABPP ratio (R) at liganded lysine P12956_K351 ([3]; 50 uM, in vitro) | other results
1 | N#Cc1ccc(C(=O)Oc2ccc([N+](=O)[O-])cc2[N+](=O)[O-])cc1 [fragment 44, 2,4-Dinitrophenyl 4-cyanobenzoate] | 1.0 | 1.5 | 1.1 |  |  |  | 
2 | O=C(CCc1coc2cc(F)ccc2c1=O)Oc1c(F)c(F)c(F)c(F)c1F [fragment 26, Pentafluorophenyl 3-(7-fluoro-4-oxo-4H-chromen-3-yl)propanoate] |  |  |  |  |  |  | isoTOP-ABPP reactivity ratio at lysine P55786_K712 ([1]; 50 uM, 231 sol, in vitro): 1.2; isoTOP-ABPP reactivity ratio at lysine Q96ST3_K155 ([2]; 50 uM, 231 sol, in vitro): 1.7; isoTOP-ABPP reactivity ratio at lysine P12956_K351 ([3]; 50 uM, 231 sol, in vitro): 2.1
3 | O=C(Oc1ccc([N+](=O)[O-])cc1[N+](=O)[O-])C1CCN(C(=O)OCc2ccccc2)CC1 [fragment 34, 1-Benzyl 4-(2,4-dinitrophenyl) piperidine-1,4-dicarboxylate] |  |  |  | 11.0 | 0.8 | 1.6 | 
4 | O=C(CC12CC3CC(CC(C3)C1)C2)Oc1ccc([N+](=O)[O-])cc1[N+](=O)[O-] [fragment 38, 2,4-Dinitrophenyl 2-(adamantan-1-yl)acetate] |  |  |  | 1.0 | 1.2 | 3.3 | 
5 | CC(C)(C)OC(=O)N=C(NC(=O)OC(C)(C)C)n1cccn1 [fragment 50, reference compound] |  |  |  |  |  |  | isoTOP-ABPP ratio, lysine P55786_K712 ([1]; 100 uM_231_sol_in vitro): 1.6; isoTOP-ABPP ratio, lysine Q96ST3_K155 ([2]; 100 uM_231_sol_in vitro): 3.5; isoTOP-ABPP ratio, lysine P12956_K351 ([3]; 100 uM_231_sol_in vitro): 6.0
6 | O=C(CCc1coc2cc(F)ccc2c1=O)Oc1ccc([N+](=O)[O-])cc1[N+](=O)[O-] [fragment 36, 2,4-Dinitrophenyl 3-(7-fluoro-4-oxo-4H-chromen-3-yl)propanoate] |  |  |  | 2.7 | 1.4 | 2.1 | 
7 | CCn1cc(C(=O)Oc2c(F)c(F)c(F)c(F)c2F)c(=O)c2ccc(C)nc21 [fragment 28, Pentafluorophenyl 1-ethyl-7-methyl-4-oxo-1,4-dihydro-1,8-naphthyridine-3-carboxylate] |  |  |  |  |  |  | isoTOP-ABPP reactivity ratio at lysine P55786_K712 ([1]; 50 uM, 231 sol, in vitro): 1.0; isoTOP-ABPP reactivity ratio at lysine Q96ST3_K155 ([2]; 50 uM, 231 sol, in vitro): 4.9; isoTOP-ABPP reactivity ratio at lysine P12956_K351 ([3]; 50 uM, 231 sol, in vitro): 1.9
8 | O=C(CCc1cn(-c2ccccc2)nc1-c1ccccc1)Oc1c(F)c(F)c(F)c(F)c1F [fragment 19, Pentafluorophenyl 3-(1,3-diphenyl-1H-pyrazol-4-yl)propanoate] |  |  |  |  |  |  | R value (DMSO/fragment) for probe 1 labeling ([1]; P55786_K712, 50 uM, 231 sol, in vitro): 1.0; R value (DMSO/fragment) for probe 1 labeling ([2]; Q96ST3_K155, 50 uM, 231 sol, in vitro): 1.6; R value (DMSO/fragment) for probe 1 labeling ([3]; P12956_K351, 50 uM, 231 sol, in vitro): 1.7

More lines, main results first:

Row | isoTOP-ABPP ratio, lysine P55786_K712 ([1]; 50 uM_231_sol_in vitro) | isoTOP-ABPP ratio, lysine Q96ST3_K155 ([2]; 50 uM_231_sol_in vitro) | isoTOP-ABPP ratio, lysine P12956_K351 ([3]; 50 uM_231_sol_in vitro) | Structure (SMILES) | isoTOP-ABPP ratio (R) at liganded lysine P55786_K712 ([1]; 50 uM, in vitro) | isoTOP-ABPP ratio (R) at liganded lysine Q96ST3_K155 ([2]; 50 uM, in vitro) | isoTOP-ABPP ratio (R) at liganded lysine P12956_K351 ([3]; 50 uM, in vitro) | other results
9 | 1.0 | 1.8 | 1.4 | O=C(Oc1c(F)c(F)c(C(F)(F)F)c(F)c1F)c1cc(C(F)(F)F)cc(C(F)(F)F)c1 [fragment 47, 2,3,5,6-Tetrafluoro-4-(trifluoromethyl)phenyl 3,5-bis(trifluoromethyl)benzoate] |  |  |  | 
10 | 1.0 | 20.0 | 1.5 | O=C(Oc1c(F)c(F)cc(F)c1F)c1cc(C(F)(F)F)cc(C(F)(F)F)c1 [fragment 48, 2,3,5,6-Tetrafluorophenyl 3,5-bis(trifluoromethyl)benzoate] |  |  |  | 
